Experimental data published in patent publication US9345389B2, “Additional systems and methods for providing real-time anatomical guidance in a diagnostic or therapeutic procedure” (EMORY UNIVERSITY, priority 2010, dated 2016).

Experiments:
[1] = Inspection of internal organs and behavior for toxicity in Apcmin/+ mice
Procedure: This study was conducted in two mice. Two mice were injected with 2 mg/kg ICG. One mouse received ICG intravenously via a tail vein. The other mouse was administered ICG intraperitoneally. After ICG had circulated for 20 h, the mice were euthanized, the lower GI was removed, washed extensively, sectioned roughly into four segments; duodenum, jejunum, ilium, and cecum and colon, and formalin fixed. The mice were then imaged using the integrated imaging and spectroscopy imaging system as provided in this disclosure.
Since these doses were at the maximum recommended dose, the internal organs were briefly inspected for any aberrant signs of toxicity.

4T1 breast tumors = assay: In vivo and intra-operative tumor detection with handheld spectroscopic pen device; set-up: species or system mouse; conditions: ICG 357 μg/kg i.v.
Procedure: All in vivo murine studies were performed under an approved protocol by the Emory University IACUC. The mouse mammary carcinoma cell line 4T1, which stably expresses a firefly luciferase gene, was obtained from Dr. Lily Yang at Emory University (Atlanta, Ga.). 4T1 cells were cultured in DMEM containing 10% FBS and 1× antibiotic/antimycotic agent. Prior to injection into mice, the cells were washed two times with PBS and diluted in sterile PBS to a final concentration of 2×10^7 cells/mL. Mammary tumors were inoculated into nude mice by the subcutaneous administration of 2×10^6 4T1 cells into the mouse flank. Once the tumors were approximately 4 mm in diameter, ICG was administered intravenously (i.v.) via a tail vein at a dose of 357 μg/kg. After 24 h, mice were anesthetized by intraperitoneal (i.p.) injection of a 2.5% solution of tribromoethanol (350 mg/kg). Tumor-bearing mice undergoing bioluminescence imaging were administered i.p. 100 μL, of a luciferin solution (30 mg/mL). Bioluminescent images were acquired on a Kodak In-Vivo FX Imaging System from Carestream Molecular Imaging (Rochester, N.Y.). Corresponding bright-field images were taken for anatomical reference of the bioluminescence signal. A series of spectra were acquired on tumor-bearing mice using the handheld spectroscopic pen device. First, the position of the handheld spectroscopic pen device was fixed to about 1-2 cm above the location of the acquisition area on the mouse. Spectra were collected in 1 s and were obtained from several locations, including directly over the center of the tumor and the peritumoral region. After the spectra were acquired, the integrated signal intensity was calculated. The signal intensity was compared to both the bright-field anatomical location and the bioluminescence signal.
In vivo investigations were conducted to test the ability of the handheld spectroscopic pen device to detect intratumoral deposition of ICG after intravenous infusion. This contrast agent has been approved by the U.S. Food and Drug Administration (FDA) and is indicated for various uses in humans, such as for determining cardiac output, hepatic function and liver blood flow, and for ophthalmic angiography. To assess degree of tumor contrast enhancement using ICG, mice were used in which 4T1 tumor cells (2×10^6 in number) were subcutaneously injected 18 days prior to imaging. The tumor cells were genetically engineered to express the firefly luciferase gene; intravenous injection of luciferin after tumor development causes these cells to emit bioluminescent light and allows one to determine the precise location of tumors using bioluminescence imaging. […]

[2] = Optical properties of ICG; assay type: physicochemical; conditions: 785 nm excitation
Excerpt: The ability of the handheld spectroscopic pen device to differentiate contrast agent signals from the autofluorescence and Raman scattering of major tissue/organ types (i.e. fat, liver and lung) was first examined. […] At 785 nm excitation, ICG has a fluorescence peak at 816 nm, while fat has a background fluorescence peak at 805 nm plus resolvable Raman signals at 862, 1070, 1297, 1439, and 1652 cm^−1 (corresponding to 842, 857, 874, 885, and 902 nm in wavelength, respectively). ICG buried in fat has identifiable contributions of both ICG and fat (e.g., ICG fluorescence at 816 nm and the fat Raman peaks at 874 and 885 nm).

[3] = stated as known; cited from earlier work
[4] = after intravenous administration, bound to serum proteins; cited from earlier work
polyps = assay: Detection of murine GI polyps (Apcmin/+ FAP model) with SpectroPen; assay type: in vivo, mouse
Procedure: This example describes the detection of polyps in the murine FAP model, Apcmin/+. This study was conducted in two mice. Two mice were injected with 2 mg/kg ICG. One mouse received ICG intravenously via a tail vein. The other mouse was administered ICG intraperitoneally. After ICG had circulated for 20 h, the mice were euthanized, the lower GI was removed, washed extensively, sectioned roughly into four segments; duodenum, jejunum, ilium, and cecum and colon, and formalin fixed. The mice were then imaged using the integrated imaging and spectroscopy imaging system as provided in this disclosure.
Intestinal segments were rinsed with PBS. […] Next the “SpectroPen” handheld probe was placed 1 cm above the intestinal tissue and clamped into that position for consistent repetitive acquisitions. The 1 cm space between the SpectroPen and the tissue correlates roughly to a 1 mm laser spot size. • 3. Spectra were acquired and recorded from apparently healthy sections of the intestine (considered background signal), and polyps. An integration time of 1 s was utilized. • 4.

In the case of `CC1(C)C(/C=C/C=C/C=C/C=C2\N(CCCCS(=O)(=O)O)c3ccc4ccccc4c3C2(C)C)=[N+](CCCCS(=O)(=O)[O-])c2ccc3ccccc3c21` [ICG, Indocyanine green], the “appearance of internal organs” value ([1]; 2 mg/kg ICG intraperitoneally, 20 h, patent attributes to anemia from polyps) is reported as “pale color was immediately noticed, especially in the liver and kidneys”, the behavioral changes ([1]; 2 mg/kg ICG via tail vein) is reported as “no dramatic behavioral changes” and the “signal of excised tumors vs surgical cavity” value (4T1 breast tumors; after surgical removal) is reported as 10 fold. The “integrated signal intensity, tumor areas vs normal regions” value (4T1 breast tumors; mice with 4T1 tumors, 24 h) was ~10 times, the “signal at adjacent edges (less than 2 mm from the tumor) vs more remote areas” value (4T1 breast tumors; mice with 4T1 tumors, 24 h) was 5-6 times and the “ICG signal at positive surgical margin vs adjacent tissue” value (4T1 breast tumors; residual tumor at margin of cavity) was 5 times. For the same compound, the fluorescence peak [2] was 816 nm, the route of excretion [3] was “secreted entirely into bile” and the “hydrodynamic size (diameter) after protein binding” value [4] was 6-8 nm. For the same compound, the “ICG signal in polyps vs background” value (polyps; 2 mg/kg ICG intraperitoneally, 20 h, GI tract ex vivo) was “greater than in the background”, the “ICG signal in polyps vs background tissue” value (polyps; 2 mg/kg ICG intravenously, 20 h, GI tract ex vivo) was “higher signal in polyps then in the background tissue” and the “signal in GI tract, i.p. vs i.v. route” value (polyps; 2 mg/kg ICG, 20 after injection) was “larger signal in the GI tract compared to mouse injected i.v”. The “signal from colon polyp compared to background” value (polyps; Apcmin/+ mouse, colon, 2 mg/kg ICG i.v., 20 h) was ≥ 5 fold.
